From ChEMBL document CHEMBL1122176, “Synthesis and antitumor activity of 10-alkyl-10-deazaminopterins. A convenient synthesis of 10-deazaminopterin” (J Med Chem, 1982)
Values after ≈ are worked out from the molar mass of the structure shown.

What was measured:
[1] = target: Dihydrofolate reductase (Lactobacillus casei) (UniProt P00381); assay: Concentration required for the 50% growth inhibition of Lactobacillus casei dihydrofolate reductase enzyme; conditions: Lacticaseibacillus casei
[2] = test system: Lacticaseibacillus casei; assay: Concentration required for the 50% growth inhibition of Lactobacillus casei ATCC 7469 organism at 1 ng/mL folate concentration; format: functional, organism-based
[3] = test system: Enterococcus faecium; assay: Concentration required for the 50% growth inhibition of Streptococcus faecium ATCC 8043 organism at 1 ng/mL folate concentration; format: functional, organism-based
[4] = test system: Enterococcus faecium; assay: Concentration required for the 50% growth inhibition of Streptococcus faecium MTX resist organism at 1 ng/mL folate concentration; format: functional, organism-based
[5] = Concentration required for the 50% growth inhibition of Streptococcus faecium ATCC 8043 organism at 1 ng/mL folate concentration
[6] = The efflux rate constant of the compound; format: ADME
[7] = Influx velocity of the compound; format: ADME
[8] = target: T1, Dihydrofolate reductase (Mus musculus, UniProt P00375); assay: Tested for inhibition of dihydrofolate reductase enzyme
T1 sequence (P00375 whole entry): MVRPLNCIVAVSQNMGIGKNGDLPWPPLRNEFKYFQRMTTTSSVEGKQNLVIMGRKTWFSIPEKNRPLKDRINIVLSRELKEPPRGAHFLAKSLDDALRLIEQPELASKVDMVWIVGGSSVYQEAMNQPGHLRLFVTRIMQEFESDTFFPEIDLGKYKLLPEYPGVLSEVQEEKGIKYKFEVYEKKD

[9] = test system: L1210; assay: Minimum inhibitory concentration of compound was tested for growth inhibition of L1210 cells; format: functional; conditions: Mus musculus
[10] = Michaelis constant of compound was determined from affinity towards carrier component of transport mechanism
[11] = test system: L1210; assay: % increase in lifespan was measured at 3 mg/kg dosage after sc administration; conditions: Mus musculus
[12] = test system: L1210; assay: % increase in lifespan was measured at 15 mg/kg dosage after sc administration; conditions: Mus musculus
[13] = test system: L1210; assay: Antitumor activity expressed as mean survival time against L1210 leukemia cells in mice after sc administration at dose 3 mg/kg; conditions: route subcutaneous
[14] = test system: L1210; assay: Antitumor activity expressed as mean survival time against L1210 leukemia cells in mice after sc administration at dose 15 mg/kg; conditions: route subcutaneous
[15] = target: T1, Dihydrofolate reductase; assay: Tested for inhibition of dihydrofolate reductase enzyme from mouse
[16] = test system: L1210; assay: Minimum inhibitory concentration of compound was tested for growth inhibition of L1210 cells.; format: functional; conditions: Mus musculus

Sequence of Dihydrofolate reductase (Lactobacillus casei) (P00381 whole entry): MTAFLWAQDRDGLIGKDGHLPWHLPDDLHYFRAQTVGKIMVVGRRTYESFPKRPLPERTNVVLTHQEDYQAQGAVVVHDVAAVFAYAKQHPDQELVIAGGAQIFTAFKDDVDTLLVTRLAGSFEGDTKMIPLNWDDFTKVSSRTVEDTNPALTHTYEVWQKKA

## CC(Cc1cnc2nc(N)nc(N)c2n1)c1ccc(C(=O)O)cc1 (stereo not given)
[1]
  IC50: 420 nM
[2]
  Concentration: 5 ng/mL
[3]
  Concentration: 0.72 ng/mL
[4]
  Concentration: 60 ng/mL
[5]
  Concentration: 0.72 ng/mL

## CC(C)(Cc1cnc2nc(N)nc(N)c2n1)c1ccc(C(=O)NC(CCC(=O)O)C(=O)O)cc1 (stereo not given)
[6]
  K: 0.24 min⁻¹
[7]
  Vmax: 8.31 nM/min/g
[8]
  Ki: 0.0026 nM
[1]
  IC50: 27 nM
[9]
  MIC50: 0.00058 µM (≈ 0.271 ng/mL)
[2]
  Concentration: 0.04 ng/mL
[3]
  Concentration: 0.25 ng/mL
[4]
  Concentration: > 2000 ng/mL
[10]
  Km: 0.93 µM
[11]
  ILS at 3 mg/kg: 143%
[12]
  ILS at 15 mg/kg: 135%
[13]
  MST: 16.1 days
[14]
  MST: 15.9 days
[5]
  Concentration: 0.25 ng/mL

## Nc1nc(N)c2nc(CNc3ccc(C(=O)N[C@@H](CCC(=O)O)C(=O)O)cc3)cnc2n1 [AMINOPTERIN]
[6]
  K: 0.21 min⁻¹
[7]
  Vmax: 7.83 nM/min/g
[15]
  Ki: 0.0023 nM
[16]
  MIC50: 0.00061 µM (≈ 0.269 ng/mL)
[10]
  Km: 1.21 µM

## CCC(Cc1cnc2nc(N)nc(N)c2n1)c1ccc(C(=O)NC(CCC(=O)O)C(=O)O)cc1 (stereo not given)
[6]
  K: 0.2 min⁻¹
[7]
  Vmax: 7.8 nM/min/g
[1]
  IC50: 27 nM
[9]
  MIC50: 0.00055 µM (≈ 0.257 ng/mL)
[2]
  Concentration: 0.08 ng/mL
[3]
  Concentration: 0.37 ng/mL
[4]
  Concentration: 1300 ng/mL
[10]
  Km: 0.89 µM
[11]
  ILS at 3 mg/kg: 170%
[12]
  ILS at 15 mg/kg: 211%
[13]
  MST: 17.8 days
[14]
  MST: 20.5 days
[5]
  Concentration: 0.37 ng/mL

## CN(Cc1cnc2nc(N)nc(N)c2n1)c1ccc(C(=O)N[C@@H](CCC(=O)O)C(=O)O)cc1 [METHOTREXATE]
[6]
  K: 0.19 min⁻¹
[7]
  Vmax: 7.77 nM/min/g
[9]
  MIC50: 0.00271 µM (≈ 1.23 ng/mL)
[2]
  Concentration: 0.01 ng/mL
[3]
  Concentration: 0.05 ng/mL
[4]
  Concentration: 3500 ng/mL
[10]
  Km: 3.42 µM
[11]
  ILS at 3 mg/kg: 139%
[12]
  ILS at 15 mg/kg: 151%
[13]
  MST: 15.8 days
[14]
  MST: 16.6 days

## Nc1nc(N)c2nc(CCc3ccc(C(=O)N[C@@H](CCC(=O)O)C(=O)O)cc3)cnc2n1
[6]
  K: 0.23 min⁻¹
[7]
  Vmax: 8.13 nM/min/g
[8]
  Ki: 0.0021 nM
[9]
  MIC50: 0.00061 µM (≈ 0.268 ng/mL)
[2]
  Concentration: 0.01 ng/mL
[3]
  Concentration: 0.2 ng/mL
[4]
  Concentration: > 2000 ng/mL
[10]
  Km: 0.96 µM
[11]
  ILS at 3 mg/kg: 162%
[12]
  ILS at 15 mg/kg: 178%
[13]
  MST: 17.3 days
[14]
  MST: 18.4 days
[5]
  Concentration: 0.2 ng/mL

## CC(Cc1cnc2nc(N)nc(N)c2n1)c1ccc(C(=O)NC(CCC(=O)O)C(=O)O)cc1 (stereo not given)
[6]
  K: 0.23 min⁻¹
[7]
  Vmax: 8.02 nM/min/g
[8]
  Ki: 0.0024 nM
[1]
  IC50: 28 nM
[9]
  MIC50: 0.00051 µM (≈ 0.231 ng/mL)
[2]
  Concentration: 0.03 ng/mL
[3]
  Concentration: 0.32 ng/mL
[4]
  Concentration: 200 ng/mL
[10]
  Km: 1.01 µM
[11]
  ILS at 3 mg/kg: 181%
[12]
  ILS at 15 mg/kg: 235%
[13]
  MST: 18.6 days
[14]
  MST: 22.1 days
[5]
  Concentration: 0.32 ng/mL

## CC(C)(Cc1cnc2nc(N)nc(N)c2n1)c1ccc(C(=O)O)cc1
[1]
  IC50: 440 nM
[2]
  Concentration: 3.6 ng/mL
[3]
  Concentration: 0.5 ng/mL
[4]
  Concentration: 40 ng/mL
[5]
  Concentration: 0.5 ng/mL

## CCC(Cc1cnc2nc(N)nc(N)c2n1)c1ccc(C(=O)O)cc1 (stereo not given)
[1]
  IC50: 380 nM
[2]
  Concentration: 5.4 ng/mL
[3]
  Concentration: 0.9 ng/mL
[4]
  Concentration: 50 ng/mL
[5]
  Concentration: 0.9 ng/mL
